Results taken from patent publication US12630523B2, “Isoquinoline derivatives for use as antiviral and antitumour agents” (priority 2021, dated 2026).

What was measured:
Type in all cases: cell-based
Hela (ATCC CCL-2) = assay: Monolayer SRB assay, Hela; details: Homo sapiens, 72 hrs, HPV18
Experimental: (§1) Various cell culture cells grown as monolayers are harvested from exponential growing cultures after treatment with various OC compounds at different concentrations. For this depending on the cell line, 10.000 to 30.000 cells were plated in 96-well flat-bottom microtiter plates. After a 24 h recovery period to allow cells to resume exponential growth, supernatants are discarded and 100 μl of culture medium (eight control wells/plate) or culture medium with the test compound are added by a liquid handling robotic system (Microlab® Starlet, Hamilton) and treatment continued for 72 hrs. Compounds are applied at 9 concentrations and eight wells/concentration). At least three independent experiments are performed. For SRB staining, cells are fixed with SRB01 (Tab. 5) for 1 h at 4° C. […] Optical density is assessed using a plate-reader (Sunrise, Tecan©) at 540 nm.
(§2) Concentrations required for half maximal response of the compound for cell growth inhibition (EC50) is calculated by non-linear regression (log[conc. of inhibitor] versus response (% T/C)) using the analysis software GraphPad Prism®, Prism 5 for windows, version 5.01 (GraphPad Software Inc., CA).

SiHa (ATCC HTB-35) = assay: Monolayer SRB assay, SiHa; details: Homo sapiens, 72 hrs, HPV16
Experimental: as §1, §2

SARS-CoV-2 = assay: SARS-CoV-2/Huh7-EGFP HTS antiviral Assay (96-well); details: Severe acute respiratory syndrome coronavirus 2, Huh-7; sublethal dose of 10 μM, Huh7, n4

Compound | EC50 (Hela (ATCC CCL-2)) | EC50 (SiHa (ATCC HTB-35)) | inhibition at 10 µM (SARS-CoV-2)
Cc1ccc(CN2C(=O)c3ccccc3[C@H](C(=O)Nc3cccc(N4CCN(C)CC4)c3)[C@@H]2c2ccc(C(F)(F)F)cc2)cc1 [OC246, N-[3-(4-methylpiperazin-1-yl)phenyl]-2-[(4-methylphenyl)methyl]-1-oxo-3-[4-(trifluoromethyl)phenyl]-1,2,3,4-tetrahydroisoquinoline-4-carboxamide] | 2.68 µM | 3.53 µM | 
CN1CCC(CN2C(=O)c3ccccc3[C@H](C(=O)Nc3cccc(N4CCN(C)CC4)c3)[C@H]2c2ccc(C(F)(F)F)cc2)CC1 [VSP035, (3S,4S)-N-[3-(4-methylpiperazin-1-yl)phenyl]-2-[(1-methylpiperidin-4-yl)methyl]-1-oxo-3-[4-(trifluoromethyl)phenyl]-1,2,3,4-tetrahydroisoquinoline-4-carboxamide] |  |  | 72 ± 7.7%
